Common to all, as to format: physicochemical
The nature of data set [1]: Grinding simulation experiments. The method, then: About 50 mg of I-1 Form A was ground manually with a mortar and pestle for 1, 3 and 5 min. Form transformation and degree of crystallinity was evaluated by XRPD.
About 50 mg of Form A was ground manually with a mortar and pestle for 1, 3 and 5 min. Form transformation and degree of crystallinity was evaluated by XRPD.

Data set [2] can be described thus: Behavior under compression. The method, then: About 20 mg of I-1 Form A was compressed for 5 minutes at 2 MPa, 5 MPa and 10 MPa with a hydraulic press. XRPD characterization was performed to investigate the polymorphic behavior under compression.
About 20 mg of Form A was compressed for 5 minutes at 2 MPa, 5 MPa and 10 MPa with a hydraulic press. XRPD characterization was performed to investigate the polymorphic behavior under compression.

Data set [3] can be described thus: Solution stability at 25° C. The settings on record: for Chemical purity / Chiral purity / racemization in solution / chemical stability in solution: 25° C.; for Initial chiral purity: before dissolution; for racemization in solution / chemical stability in solution: methanol and THF/ACN (2:1, v/v), 4 mg/mL; for chemical stability in solution: at least 24 h. The method, then:
Solution stability of I-1 Form A and I-3 Form A was investigated in methanol and THF/ACN (2:1, v/v) at 25° C. Target concentration is 4 mg/mL.
Accurate 4 mg of I-1 Form A, 5.13 mg of I-3 Form A was weighed into a 8 mL glass vial, respectively. The salt amount used is equivalent to 4 mg anhydrous free form.

Data set [4] can be described thus: Stability of III-1 & I-1 solid. The note with it: after 55 days; initial 99.2%.
Setting [5] is: MeOH, 0 h, listed as I-1 Form A.
Setting [6] is: MeOH, 6 h, listed as I-1 Form A.
Setting [7] is: MeOH, 24 h, listed as I-1 Form A.
Setting [8] is: THF/ACN(2:1, v/v), 0 h, listed as I-1 Form A.
[9] abbreviates: THF/ACN(2:1, v/v), 6 h, listed as I-1 Form A.
Where [10] appears, read: THF/ACN(2:1, v/v), 24 h, listed as I-1 Form A.
The mark [11] stands for this setting: MeOH, 0 h, listed as I-3 Form A.
Where [12] appears, read: MeOH, 6 h, listed as I-3 Form A.
Where [13] appears, read: MeOH, 24 h, listed as I-3 Form A.
[14] abbreviates: THF/ACN(2:1, v/v), 0 h, listed as I-3 Form A.
Setting [15] is: THF/ACN(2:1, v/v), 6 h, listed as I-3 Form A.
The mark [16] stands for this setting: THF/ACN(2:1, v/v), 24 h, listed as I-3 Form A.

“Also recorded” adds a separate entry of the source.

On to `N#Cc1c(-c2cc(NC(=O)c3cc(F)cc(C(F)(F)F)c3)c3c(c2)C(=O)N[C@H]3c2cc(F)ccc2Cl)ccc2ncnn12` [Compound I-1, (R)-N-(3-(2-chloro-5-fluorophenyl)-6-(5-cyano-[1,2,4]triazolo[1,5-a]pyridin-6-yl)-1-oxoisoindolin-4-yl)-3-fluoro-5-(trifluoromethyl)benzamide], for which the “XRPD peak intensity after dry grinding” value in data set [1] is reported as “slightly decreased”. The XRPD entry is “No form and crystallinity change,” in data set [1] (Dry grinding for 1 min); “No form change, but peaks became slightly broader” in data set [2] (compressed for 5 minutes at 2 Mpa); “No form change, but peaks became slightly broader” in data set [2] (compressed for 5 minutes at 5 Mpa); “No form change, but peaks became slightly broader” in data set [2] (compressed for 5 minutes at 10 Mpa). The “form change on grinding (XRPD)” value in data set [1] (mortar and pestle 1, 3 and 5 min) is reported as “no form change”. Also, the “XRPD peaks after compression” value in data set [2] is listed as “slightly broader”. Besides, in data set [2] (5 minutes at 2, 5 and 10 MPa), the “form change under compression (XRPD)” value is listed as “no form change”. For the same molecule, the Chemical purity in data set [3] (setting [5]) is recorded as 98.9%; in data set [3] (setting [6]) it was 99.0%; in data set [3] (setting [7]), 99.1%; in data set [3] (setting [8]), 98.6%; in data set [3] (setting [9]) it was 98.7%; in data set [3] (setting [10]), 99.0%. Further, the Chiral purity in data set [3] (setting [5]), in data set [3] (setting [6]), in data set [3] (setting [7]), in data set [3] (setting [8]), in data set [3] (setting [9]) and in data set [3] (setting [10]) was 98.9% in each case. In addition, the Initial chiral purity result in data set [3] (listed as I-1 Form A) is reported as “Initial chiral purity: 99.0%”. Also, the racemization in solution entry in data set [3] is on record as “no racemization”. The “chemical stability in solution” value in data set [3] (listed as I-1 Form A) is on record as “chemically stable”. In data set [4], the “purity of solid after storage” value stood at 99.2%.
On to `N#Cc1c(-c2cc(NC(=O)c3cc(F)cc(C(F)(F)F)c3)c3c(c2)C(=O)N[C@H]3c2cc(F)ccc2Cl)ccc2ncnn12` [Compound I-3], for which the Chemical purity is listed as 99.3% in data set [3] (setting [11]); 99.3% in data set [3] (setting [12]); 99.4% in data set [3] (setting [13]); 99.2% in data set [3] (setting [14]); 99.3% in data set [3] (setting [15]); 99.4% in data set [3] (setting [16]). Further, the Chiral purity in data set [3] (setting [11]), in data set [3] (setting [12]), in data set [3] (setting [13]), in data set [3] (setting [14]), in data set [3] (setting [15]) and in data set [3] (setting [16]) was 98.3% in each case. In addition, the Initial chiral purity entry in data set [3] (listed as I-3 Form A) is reported as “Initial chiral purity: 98.6%”. In addition, the racemization in solution entry in data set [3] is “no racemization”. Besides, the “chemical stability in solution” value in data set [3] (listed as I-3 Form A) is reported as “chemically stable; also recorded: good solution stability”.

(Values after US20260125374A1, “PI3K-ALPHA INHIBITORS AND METHODS OF MAKING AND USING THE SAME” (Relay Therapeutics, Inc., priority 2021, published 2026).)
